Measured values as given in article PMC6412401 (Molecules, 2019).
Entries after “also recorded” stand apart in the source; their conditions may differ.

Key:
Type in all cases: biochemical
recombinant human MAO-A = target: T1, recombinant human MAO-A (Homo sapiens, UniProt P21397); experiment: MAO-A inhibition assay (kynuramine oxidative deamination); conditions: kynuramine 80 μM; mean ± S.D. of at least triplicate observations
T1 construct: purchased BD Biosciences (Bedford, MA, USA)
T1 sequence (P21397 1-527): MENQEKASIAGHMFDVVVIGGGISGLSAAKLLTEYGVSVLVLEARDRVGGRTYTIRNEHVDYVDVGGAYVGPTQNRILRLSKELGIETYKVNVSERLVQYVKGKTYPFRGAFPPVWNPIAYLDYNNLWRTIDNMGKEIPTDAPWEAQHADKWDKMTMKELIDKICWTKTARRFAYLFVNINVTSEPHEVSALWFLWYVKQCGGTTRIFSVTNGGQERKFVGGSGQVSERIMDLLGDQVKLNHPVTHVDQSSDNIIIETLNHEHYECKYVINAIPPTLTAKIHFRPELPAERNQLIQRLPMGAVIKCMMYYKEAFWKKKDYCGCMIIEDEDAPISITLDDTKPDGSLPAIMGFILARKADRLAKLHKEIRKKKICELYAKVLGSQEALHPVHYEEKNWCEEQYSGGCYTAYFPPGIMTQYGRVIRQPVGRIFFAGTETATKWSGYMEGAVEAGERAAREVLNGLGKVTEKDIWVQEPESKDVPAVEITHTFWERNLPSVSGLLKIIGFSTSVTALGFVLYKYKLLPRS
Method: (§1) To investigate the effect of the isolated constituents from T. diffusa on recombinant human MAO-A and MAO-B, the kynuramine oxidative deamination assay was performed in 384-well plates, as previously reported, with minor modifications. A single fixed concentration of kynuramine substrate and varying concentrations of inhibitor were used to test enzyme inhibition and determine the IC50 values. Kynuramine concentrations for MAO-A and MAO-B were 80 μM and 50 μM, respectively. These concentrations of kynuramine were twice the apparent KM value for substrate binding. The concentrations that were tested for pure constituents were from 0.01 to 100 μM, for MAO-A and MAO-B inhibition assays. Reactions were performed in a clear 384-well microplate (50 μL) with 0.1 M potassium phosphate buffer, pH 7.4. The inhibitors and compounds were dissolved in DMSO, diluted in the buffer solution, and pre-incubated at 37 °C for 10 min (no more than 1.0% DMSO final concentration). […] The enzyme product 4-hydroxyquinoline formation was recorded fluorometrically using a SpectraMax M5 fluorescence plate reader (Molecular Devices, Sunnyvale, CA, USA) with an excitation (320 nm) and emission (380 nm) wavelength, using the SoftMaxPro 6.0 program. The inhibition effects of enzyme activity were calculated as a percent of product formation when compared to the corresponding control (enzyme-substrate reaction) without inhibitors. Controls, including samples in which the enzyme or the substrate was added after stopping the reactions, were simultaneously checked to determine the interference of inherent fluorescence of the test compounds with the measurements. IC50 values for MAO-A and MAO-B inhibition were calculated from the concentration dependent inhibition curves using XLfit, a Microsoft Excel-based plug-in which performs Regression, curve fitting and statistical analysis (IDBS, Bridgewater, NJ, USA).
(§2) The dose-response curves were generated using Microsoft® Excel and the IC50 values were analyzed using XLfit software.

recombinant human MAO-B [1] = target: T2, recombinant human MAO-B (Homo sapiens, UniProt P27338); experiment: MAO-B inhibition assay (kynuramine oxidative deamination); conditions: for SI MAO-A/-B: Selectivity Index = IC50 MAO-A/IC50 MAO-B; for IC50: kynuramine 50 μM, mean ± S.D. of at least triplicate observations
T2 construct: purchased BD Biosciences (Bedford, MA, USA)
T2 sequence (P27338 1-520): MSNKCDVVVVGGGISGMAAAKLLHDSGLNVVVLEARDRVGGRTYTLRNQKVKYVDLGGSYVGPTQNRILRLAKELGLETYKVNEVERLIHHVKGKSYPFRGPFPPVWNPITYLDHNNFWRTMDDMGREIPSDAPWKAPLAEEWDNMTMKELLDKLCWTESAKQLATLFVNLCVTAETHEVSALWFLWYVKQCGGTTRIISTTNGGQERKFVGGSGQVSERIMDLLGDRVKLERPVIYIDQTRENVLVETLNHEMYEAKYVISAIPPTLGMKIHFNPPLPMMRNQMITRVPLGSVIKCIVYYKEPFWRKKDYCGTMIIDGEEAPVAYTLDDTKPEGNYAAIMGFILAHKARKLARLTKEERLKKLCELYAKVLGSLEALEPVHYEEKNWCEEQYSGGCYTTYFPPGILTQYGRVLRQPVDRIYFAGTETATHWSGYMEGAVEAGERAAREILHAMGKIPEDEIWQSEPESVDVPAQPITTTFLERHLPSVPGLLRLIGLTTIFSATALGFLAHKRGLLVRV
Method: as §1, §2

recombinant human MAO-B [2] = target: T2, recombinant human MAO-B; experiment: Enzyme kinetics and mechanism studies (Lineweaver-Burk); conditions: for Type of Inhibition Monoamine Oxidase-B: mechanism / reversibility
Method: The assays were run at varying concentrations of the substrate and fixed concentrations of the inhibitor. The Ki (i.e., inhibition/binding affinity) values were computed with double reciprocal Lineweaver–Burk plots.
The controls without inhibitor were also simultaneously run. The results were analyzed by standard double reciprocal Line–Weaver Burk plots for computing Km and Vmax values, which were further analyzed to determine Ki values.

recombinant human MAO-B [3] = target: T2, recombinant human MAO-B; experiment: Reversibility of binding, enzyme-inhibitor complex equilibrium dialysis
Method: The activity of the enzyme was analyzed before and after the dialysis (Figure 4).
The inhibitors bind with the target enzyme through the formation of an enzyme-inhibitor complex. The formation of the enzyme-inhibitor complex may be accelerated in the presence of the high concentration of the inhibitor. […] After 20 min incubation at 37 °C, the reaction was stopped by chilling in an ice bath. All of the samples were dialyzed against potassium phosphate buffer (25 mM; pH 7.4) at 4 °C for 14–18 h (three buffer changes). Control enzyme (without inhibitor) was also run through the same procedure and the activity of the enzyme was determined before and after the dialysis.

recombinant human MAO-B [4] = target: T2, recombinant human MAO-B; experiment: Time-dependent assay for enzyme inhibition; conditions: 0.500 μM; pre-incubation 0–15 min
Method: The control without inhibitors was also run simultaneously. The activity of the enzyme was determined, as described above, and the percentage of enzyme activity remaining was plotted against the pre-incubation time to determine the time-dependence of inhibition.
The controls without inhibitors were also simultaneously run. The activities of the enzymes were determined, as described above, and the percentage of enzyme activity remaining was plotted against the pre-incubation time to determine the time-dependence of inhibition.

Row | Structure (SMILES) | IC50 (recombinant human MAO-A) [µM] | SI MAO-A/-B (recombinant human MAO-B [1]) | IC50 (recombinant human MAO-B [1]) [µM] | Type of Inhibition Monoamine Oxidase-B (recombinant human MAO-B [2]) | inhibition of MAO-B activity after incubation, before dialysis (recombinant human MAO-B [3]; 1.0 and 2.0 μM, 20 min incubation) [%] | activity of the enzyme recovered after equilibrium dialysis (recombinant human MAO-B [3]; 1.0 and 2.0 μM, dialyzed overnight) | reversibility of binding to MAO-B (recombinant human MAO-B [3]; equilibrium dialysis) | selectivity for MAO-B over MAO-A (recombinant human MAO-B [1]) [fold] | plateau of concentration-dependent inhibition of MAO-B (recombinant human MAO-B [1]; higher concentrations, ~20% activity remaining) | Type of Inhibition Monoamine Oxidase-B (recombinant human MAO-B [2]; listed as acacetin 7-methyl ether) | Ki (recombinant human MAO-B [2]; varying kynuramine, mean ± S.D. of triplicate experiments, read-out: Ki Monoamine Oxidase-B) [µM] | time dependence of binding/inhibition of MAO-B (recombinant human MAO-B [4])
1 | C[C@@H]1O[C@@H](O[C@@H]2[C@@H](O)[C@H](O)[C@@H](CO)O[C@H]2c2c(O)cc(O)c3c(=O)cc(-c4ccc(O)cc4)oc23)[C@H](O)[C@H](O)[C@H]1O [Rhamnosylvitexin] | 40.9 ± 6.81 | 1.557 | 26.3 ± 0.277 |  |  |  |  |  |  |  |  | 
2 | O=C(/C=C/c1ccc(O)cc1)OC[C@H]1O[C@@H](Oc2cc(O)c3c(=O)cc(-c4ccc(O)cc4)oc3c2)[C@H](O)[C@@H](O)[C@@H]1O [Apigenin-7-O-β-D-(6-O-p-coumaroyl) glucoside] | 22.5 ± 4.44 | 1.023 | 22 ± 1.76 |  |  |  |  |  |  |  |  | 
3 | COc1ccc(-c2cc(=O)c3c(O)cc(O)cc3o2)cc1 [Acacetin] | 0.115 ± 0.004 |  |  | Competitive/Reversible |  |  |  |  |  |  |  | 
4 | COc1ccc(-c2cc(=O)c3c(O)cc(OC)cc3o2)cc1 [Acacetin 7-methyl ether, 5-hydroxy-4′, 7-dimethoxyflavone] | > 100 | >505.051 | 0.198 ± 0.001 | Competitive/Partially Reversible | > 60 | ~ 80% | partially reversible | > 500 | ~ 80 % inhibition | reversible competitive inhibitor | 0.045 ± 0.003 | time-independent; also recorded: not dependent on the pre-incubation time
5 | COc1cc(-c2cc(=O)c3c(O)cc(O[C@@H]4O[C@H](CO)[C@@H](O)[C@H](O)[C@H]4O)cc3o2)cc(OC)c1O [Tricin-7-glucoside] | 50.9 ± 0.506 | 1.854 | 27.4 ± 0.819 |  |  |  |  |  |  |  |  | 
6 | COc1cc(O)c2c(=O)cc(-c3ccc(O)c(OC)c3)oc2c1 [Vetulin] | 18.8 ± 0.291 | 42.056 | 0.447 ± 0.01 |  |  |  |  |  |  |  |  | 
